Source: patent US8455648B2, “1-(7-(hexahydropyrrolo [3,4-c] pyrrol-2 (1H)-yl) quinolin-4-yl) -3- (pyrazin-2-yl) urea derivatives and related compounds as glycogen synthase kinase 3 (GSK-3)” (Abbott GmbH & Co. KG, priority 2008, dated 2013)

Target: T1, human Glycogen Synthase Kinase-3 beta (hGSK-3β) (Homo sapiens, UniProt P49841)
T1 construct: purchased Upstate cell signaling solutions
Test: Biochemical hGSK-3beta assay (33P-ATP phosphorylation of biotinylated peptide substrate)
Settings: 10 μM ATP, 1 μM substrate, 30 minutes at room temperature; read-out: GSK-3β IC50
Experimental: Methods—Biochemical hGSK-3Beta Assay
Compounds were tested for their ability to inhibit human Glycogen Synthase Kinase-3 beta (hGSK-3β) to phosphorylate biotin-[…](pS)EDEEE. Compounds were incubated with 0.5 μCi 33P-ATP, 10 μM ATP, 0.0125U hGSK-3β (Upstate cell signaling solutions) and 1 μM substrate (biotin-[…](pS)EDEEE) in 50 mM HEPES, 10 mM MgCl2, […], 1 mM DTT, 0.0075% Triton, 2% DMSO (total volume 50 μL) for 30 minutes at room temperature. The incubation was stopped by addition of an equal volume of 100 mM EDTA, 4M NaCl. 80 μL of this mixture was added to streptavidin-coated Flashplates (PerkinElmer). Following a wash step, 33P incorporation was quantified on a MicroBeta microplate liquid scintillation counter (PerkinElmer). IC50s were determined by fitting a sigmoidal dose-response curve to the counts obtained at the different concentrations in GraphPad Prism.

T1 sequence (P49841 whole entry): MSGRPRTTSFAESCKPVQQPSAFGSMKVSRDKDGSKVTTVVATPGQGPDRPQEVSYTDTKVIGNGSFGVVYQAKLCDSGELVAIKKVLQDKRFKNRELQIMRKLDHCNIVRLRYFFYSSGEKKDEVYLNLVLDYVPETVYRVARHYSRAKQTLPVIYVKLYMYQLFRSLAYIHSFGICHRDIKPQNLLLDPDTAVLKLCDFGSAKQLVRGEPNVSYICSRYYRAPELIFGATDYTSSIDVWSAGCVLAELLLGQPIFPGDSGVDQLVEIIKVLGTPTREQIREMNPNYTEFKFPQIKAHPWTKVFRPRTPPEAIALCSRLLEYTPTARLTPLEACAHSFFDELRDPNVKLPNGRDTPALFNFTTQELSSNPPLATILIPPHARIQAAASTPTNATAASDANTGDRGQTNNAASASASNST

SMILES | IC50 [nM]
COc1ccc2c(NC(=O)Nc3cccc(N4C[C@@H]5C[C@H]4CO5)n3)ccnc2c1 [Example 10, 1-(6-((1S,4S)-2-Oxa-5-azabicyclo[2.2.1]heptan-5-yl)pyridin-2-yl)-3-(7-methoxyquinolin-4-yl)urea] | < 100
COc1ccc2c(NC(=O)Nc3cccc(N4CC5COCC5C4)n3)ccnc2c1 (stereo not shown) [Example 9, 1-(6-(Dihydro-1H-furo[3,4-c]pyrrol-5(3H,6H,6aH)-yl)pyridin-2-yl)-3-(7-methoxyquinolin-4-yl)urea] | < 100
COc1ccc2c(NC(=O)Nc3cncc(N4C[C@H]5CN(C(=O)OC(C)(C)C)C[C@H]5C4)n3)ccnc2c1 [Example 3, (3aR,6aS)-tert-butyl 5-(6-(3-(7-methoxyquinolin-4-yl)ureido)pyrazin-2-yl)-hexahydropyrrolo[3,4-c]pyrrole-2(1H)-carboxylate] | 100 to 10000
CC(C)(C)OC(=O)N1C[C@@H]2CN(c3ccc4c(NC(=O)Nc5cnccn5)ccnc4c3)C[C@@H]2C1 [Example 1, (3aR,6aS)-Tert-butyl 5-(4-(3-pyrazin-2-ylureido)quinolin-7-yl)-hexahydropyrrolo[3,4-c]pyrrole-2(1H)-carboxylate] | 100 to 10000
O=C(Nc1cnccn1)Nc1ccnc2cc(N3C[C@@H]4C[C@H]3CN4)ccc12 [Example 7, 1-(7-((1S,4S)-2,5-Diazabicyclo[2.2.1]heptan-2-yl)quinolin-4-yl)-3-(pyrazin-2-yl)urea] | 100 to 10000
CC(C)(C)OC(=O)N1C[C@@H]2C[C@H]1CN2c1ccc2nccc(NC(=O)Nc3cnccn3)c2c1 [Example 11, (1S,4S)-Tert-butyl 5-(4-(3-pyrazin-2-ylureido)quinolin-6-yl)-2,5-diazabicyclo[2.2.1]heptane-2-carboxylate] | 100 to 10000
O=C(Nc1cnccn1)Nc1ccnc2cc(N3CC4CCNC4C3)ccc12 (stereo not shown) [Example 12, 1-(7-(Hexahydropyrrolo[3,4-b]pyrrol-5(1H)-yl)quinolin-4-yl)-3-(pyrazin-2-yl)urea] | 100 to 10000
